According to PMC5392334, “Discovery and characterization of a novel irreversible EGFR mutants selective and potent kinase inhibitor CHMFL-EGFR-26 with a distinct binding mode” (Oncotarget, 2017):

What was measured:
[1] = biological target: T1, BRSK1 (Homo sapiens, UniProt Q8TDC3); experiment: KinomeScan; format: binding; conditions: read-out: % control
T1 construct: purchased DiscoveRx KINOMEscan

[2] = biological target: T2, CAMK1B (Homo sapiens, UniProt Q6P2M8); experiment: KinomeScan; format: binding; conditions: read-out: % control
T2 construct: purchased DiscoveRx KINOMEscan

[3] = biological target: T3, CDK4-cyclinD3 (Homo sapiens, UniProt P11802); experiment: KinomeScan; format: binding; conditions: read-out: % control
T3 construct: purchased DiscoveRx KINOMEscan

[4] = biological target: T4, CDK8 (Homo sapiens, UniProt P49336); experiment: KinomeScan; format: binding; conditions: read-out: % control
T4 construct: purchased DiscoveRx KINOMEscan

[5] = biological target: T5, CDKL2 (Homo sapiens, UniProt Q92772); experiment: KinomeScan; format: binding; conditions: read-out: % control
T5 construct: purchased DiscoveRx KINOMEscan

[6] = biological target: T6, CDKL3 (Homo sapiens, UniProt Q8IVW4); experiment: KinomeScan; format: binding; conditions: read-out: % control
T6 construct: purchased DiscoveRx KINOMEscan

[7] = biological target: T7, EGFR(G719S) (Homo sapiens, UniProt P00533, G719S); experiment: KinomeScan; format: binding; conditions: read-out: % control
T7 construct: purchased DiscoveRx KINOMEscan

[8] = biological target: T8, EPHA3 (Homo sapiens, UniProt P29320); experiment: KinomeScan; format: binding; conditions: read-out: % control
T8 construct: purchased DiscoveRx KINOMEscan

[9] = biological target: T9, GSK3B (Homo sapiens, UniProt P49841); experiment: KinomeScan; format: binding; conditions: read-out: % control
T9 construct: purchased DiscoveRx KINOMEscan

[10] = biological target: T10, IGF1R (Homo sapiens, UniProt P08069); experiment: KinomeScan; format: binding; conditions: read-out: % control
T10 construct: purchased DiscoveRx KINOMEscan

[11] = biological target: T11, IRAK4 (Homo sapiens, UniProt Q9NWZ3); experiment: KinomeScan; format: binding; conditions: read-out: % control
T11 construct: purchased DiscoveRx KINOMEscan

[12] = biological target: T12, LIMK2 (Homo sapiens, UniProt P53671); experiment: KinomeScan; format: binding; conditions: read-out: % control
T12 construct: purchased DiscoveRx KINOMEscan

[13] = biological target: T13, MEK1 (Homo sapiens, UniProt Q02750); experiment: KinomeScan; format: binding; conditions: read-out: % control
T13 construct: purchased Invitrogen (SelectScreen service)

[14] = biological target: T14, MEK2 (Homo sapiens, UniProt P36507); experiment: KinomeScan; format: binding; conditions: read-out: % control
T14 construct: purchased DiscoveRx KINOMEscan

[15] = biological target: T15, MEK5 (Homo sapiens, UniProt Q13163); experiment: KinomeScan; format: binding; conditions: read-out: % control
T15 construct: purchased DiscoveRx KINOMEscan

[16] = biological target: T16, MLK2 (Homo sapiens, UniProt Q02779); experiment: KinomeScan; format: binding; conditions: read-out: % control
T16 construct: purchased DiscoveRx KINOMEscan

[17] = biological target: T17, MST2 (Homo sapiens, UniProt Q13188); experiment: KinomeScan; format: binding; conditions: read-out: % control
T17 construct: purchased DiscoveRx KINOMEscan

[18] = biological target: T18, NEK11 (Homo sapiens, UniProt Q8NG66); experiment: KinomeScan; format: binding; conditions: read-out: % control
T18 construct: purchased DiscoveRx KINOMEscan

[19] = biological target: T19, PFCDPK1(P.falciparum) (Plasmodium falciparum, UniProt P62344); experiment: KinomeScan; format: binding; conditions: read-out: % control
T19 construct: purchased DiscoveRx KINOMEscan

[20] = biological target: T20, PIK3CA(H1047L) (Homo sapiens, UniProt P42336, H1047L); experiment: KinomeScan; format: binding; conditions: read-out: % control
T20 construct: purchased DiscoveRx KINOMEscan

[21] = biological target: T21, PIK3CA(I800L) (Homo sapiens, UniProt P42336, I800L); experiment: KinomeScan; format: binding; conditions: read-out: % control
T21 construct: purchased DiscoveRx KINOMEscan

[22] = biological target: T22, PIK3CD (Homo sapiens, UniProt O00329); experiment: KinomeScan; format: binding; conditions: read-out: % control
T22 construct: purchased DiscoveRx KINOMEscan

[23] = biological target: T23, PKNB(M.tuberculosis) (Mycobacterium tuberculosis, UniProt P9WI81); experiment: KinomeScan; format: binding; conditions: read-out: % control
T23 construct: purchased DiscoveRx KINOMEscan

[24] = biological target: T24, RAF1 (Homo sapiens, UniProt P04049); experiment: KinomeScan; format: binding; conditions: read-out: % control
T24 construct: purchased DiscoveRx KINOMEscan

[25] = biological target: T25, RET(V804L) (Homo sapiens, UniProt P07949, V804L); experiment: KinomeScan; format: binding; conditions: read-out: % control
T25 construct: purchased DiscoveRx KINOMEscan

[26] = biological target: RPS6KA5(Kin.Dom.2-C-terminal) (Homo sapiens, UniProt O75582); experiment: KinomeScan; format: binding; conditions: read-out: % control
[27] = biological target: T26, RSK3(Kin.Dom.1-N-terminal) (Homo sapiens, UniProt Q15349); experiment: KinomeScan; format: binding; conditions: read-out: % control
T26 construct: RSK3(Kin.Dom.1-N-terminal); purchased DiscoveRx KINOMEscan

[28] = biological target: T27, SIK2 (Homo sapiens, UniProt Q9H0K1); experiment: KinomeScan; format: binding; conditions: read-out: % control
T27 construct: purchased DiscoveRx KINOMEscan

[29] = biological target: T28, SLK (Homo sapiens, UniProt Q9H2G2); experiment: KinomeScan; format: binding; conditions: read-out: % control
T28 construct: purchased DiscoveRx KINOMEscan

[30] = biological target: T29, SRC (Homo sapiens, UniProt P12931); experiment: KinomeScan; format: binding; conditions: read-out: % control
T29 construct: purchased DiscoveRx KINOMEscan

[31] = biological target: T30, STK33 (Homo sapiens, UniProt Q9BYT3); experiment: KinomeScan; format: binding; conditions: read-out: % control
T30 construct: purchased DiscoveRx KINOMEscan

[32] = biological target: T31, TAOK3 (Homo sapiens, UniProt Q9H2K8); experiment: KinomeScan; format: binding; conditions: read-out: % control
T31 construct: purchased DiscoveRx KINOMEscan

[33] = biological target: T32, TLK1 (Homo sapiens, UniProt Q9UKI8); experiment: KinomeScan; format: binding; conditions: read-out: % control
T32 construct: purchased DiscoveRx KINOMEscan

[34] = biological target: T33, TYRO3 (Homo sapiens, UniProt Q06418); experiment: KinomeScan; format: binding; conditions: read-out: % control
T33 construct: purchased DiscoveRx KINOMEscan

[35] = biological target: T34, ULK2 (Homo sapiens, UniProt Q8IYT8); experiment: KinomeScan; format: binding; conditions: read-out: % control
T34 construct: purchased DiscoveRx KINOMEscan

[36] = test system: NSCLC cell lines (H1975, HCC827, PC9, H3255; A549, H1355); experiment: Cell cycle analysis; format: cell-based, human
Description: We then examined CHMFL-EGFR-26's effect on cell cycle progression and apoptosis.
The cells were fixed in 70% cold ethanol and incubated at −20 °C overnight then stained with PI/RNase staining buffer (BD Pharmingen). Flow cytometry was performed using a FACS Calibur (BD), and results were analyzed by ModFit software.

[37] = test system: H1975 tumor xenografts; experiment: H1975 cells inoculated xenograft mouse model; conditions: for Tumor weight (final, mean): 21-day treatment
[38] = test system: CHL; experiment: Anti-proliferation, normal cells (CellTiter-Glo); conditions: Cricetulus griseus, 72 h
Description: Cells were grown in 96-well culture plates (2500-3000/well). For adherent cell lines, compounds of various concentrations were added into the plates after cells were cultured for 12 hours. Cell proliferation was determined after treatment with compounds for 72 hours. Cell viability was measured using the CellTiter–Glo assay (Promega, USA) according to the manufacturer's instructions, and luminescence was measured in a multi-label reader (Envision, PerkinElmer, USA). Data were normalized to control groups (DMSO) and represented by the mean of three independent measurements with standard error <20%. GI50 values were calculated using Prism 5.0 (GraphPad Software, San Diego, CA).

[39] = H1975 xenograft, 25.0 mg/kg/d oral
[40] = H1975 xenograft, 50.0 mg/kg/d oral
[41] = H1975 xenograft, 100 mg/kg/d oral

T24 sequence (P04049 whole entry): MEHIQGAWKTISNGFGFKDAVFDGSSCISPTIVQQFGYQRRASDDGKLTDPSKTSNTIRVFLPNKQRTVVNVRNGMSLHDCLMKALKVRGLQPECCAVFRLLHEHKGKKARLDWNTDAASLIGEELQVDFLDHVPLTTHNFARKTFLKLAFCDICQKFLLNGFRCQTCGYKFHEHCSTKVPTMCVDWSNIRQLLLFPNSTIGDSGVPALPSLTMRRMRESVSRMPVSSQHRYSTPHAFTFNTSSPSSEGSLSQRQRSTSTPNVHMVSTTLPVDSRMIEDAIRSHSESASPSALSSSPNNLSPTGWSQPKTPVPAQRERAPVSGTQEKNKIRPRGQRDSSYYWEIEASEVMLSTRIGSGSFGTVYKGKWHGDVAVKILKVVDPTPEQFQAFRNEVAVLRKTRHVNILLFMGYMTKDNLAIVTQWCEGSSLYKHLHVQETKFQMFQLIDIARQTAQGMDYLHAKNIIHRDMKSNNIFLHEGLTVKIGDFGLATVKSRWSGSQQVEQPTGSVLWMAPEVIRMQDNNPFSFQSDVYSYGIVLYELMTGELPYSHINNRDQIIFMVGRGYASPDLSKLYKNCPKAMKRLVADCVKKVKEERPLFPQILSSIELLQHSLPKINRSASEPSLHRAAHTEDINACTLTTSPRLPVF
T12 sequence (P53671 whole entry): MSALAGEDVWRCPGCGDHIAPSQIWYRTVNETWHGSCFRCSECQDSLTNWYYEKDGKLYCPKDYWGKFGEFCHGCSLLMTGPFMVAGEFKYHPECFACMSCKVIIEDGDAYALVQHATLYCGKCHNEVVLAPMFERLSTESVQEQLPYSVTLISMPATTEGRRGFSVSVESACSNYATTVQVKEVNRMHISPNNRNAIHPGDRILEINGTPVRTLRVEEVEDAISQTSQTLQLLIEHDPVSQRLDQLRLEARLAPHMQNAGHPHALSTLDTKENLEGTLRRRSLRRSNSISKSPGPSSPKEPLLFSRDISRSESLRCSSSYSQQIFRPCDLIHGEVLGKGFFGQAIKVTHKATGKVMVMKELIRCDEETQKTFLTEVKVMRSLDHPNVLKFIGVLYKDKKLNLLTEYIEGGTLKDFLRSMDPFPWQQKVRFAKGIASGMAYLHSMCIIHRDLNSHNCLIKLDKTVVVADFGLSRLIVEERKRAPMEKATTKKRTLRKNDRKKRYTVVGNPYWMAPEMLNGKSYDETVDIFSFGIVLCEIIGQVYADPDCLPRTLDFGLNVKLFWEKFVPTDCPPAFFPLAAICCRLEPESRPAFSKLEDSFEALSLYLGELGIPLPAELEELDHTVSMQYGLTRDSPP
T32 sequence (Q9UKI8 whole entry): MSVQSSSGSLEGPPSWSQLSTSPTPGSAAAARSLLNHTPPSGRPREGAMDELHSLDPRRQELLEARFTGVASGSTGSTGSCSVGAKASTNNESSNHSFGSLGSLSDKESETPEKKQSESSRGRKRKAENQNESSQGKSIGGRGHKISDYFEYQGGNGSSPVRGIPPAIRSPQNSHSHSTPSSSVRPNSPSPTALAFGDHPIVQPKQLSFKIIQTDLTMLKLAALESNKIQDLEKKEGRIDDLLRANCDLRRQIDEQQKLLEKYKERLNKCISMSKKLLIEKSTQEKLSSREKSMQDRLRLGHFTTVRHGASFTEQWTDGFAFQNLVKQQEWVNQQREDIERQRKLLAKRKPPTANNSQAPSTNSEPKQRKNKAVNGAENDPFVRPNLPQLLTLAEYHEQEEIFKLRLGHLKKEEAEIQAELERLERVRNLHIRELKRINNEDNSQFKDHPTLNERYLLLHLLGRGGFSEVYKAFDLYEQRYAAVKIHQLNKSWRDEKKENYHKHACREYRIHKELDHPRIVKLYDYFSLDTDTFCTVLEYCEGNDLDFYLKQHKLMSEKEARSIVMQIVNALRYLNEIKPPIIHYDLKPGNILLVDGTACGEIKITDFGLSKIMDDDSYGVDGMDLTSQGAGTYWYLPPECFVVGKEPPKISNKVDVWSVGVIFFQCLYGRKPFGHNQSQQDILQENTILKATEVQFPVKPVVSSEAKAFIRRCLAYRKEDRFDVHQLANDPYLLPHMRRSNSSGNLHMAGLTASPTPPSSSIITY
T23 sequence (P9WI81 whole entry): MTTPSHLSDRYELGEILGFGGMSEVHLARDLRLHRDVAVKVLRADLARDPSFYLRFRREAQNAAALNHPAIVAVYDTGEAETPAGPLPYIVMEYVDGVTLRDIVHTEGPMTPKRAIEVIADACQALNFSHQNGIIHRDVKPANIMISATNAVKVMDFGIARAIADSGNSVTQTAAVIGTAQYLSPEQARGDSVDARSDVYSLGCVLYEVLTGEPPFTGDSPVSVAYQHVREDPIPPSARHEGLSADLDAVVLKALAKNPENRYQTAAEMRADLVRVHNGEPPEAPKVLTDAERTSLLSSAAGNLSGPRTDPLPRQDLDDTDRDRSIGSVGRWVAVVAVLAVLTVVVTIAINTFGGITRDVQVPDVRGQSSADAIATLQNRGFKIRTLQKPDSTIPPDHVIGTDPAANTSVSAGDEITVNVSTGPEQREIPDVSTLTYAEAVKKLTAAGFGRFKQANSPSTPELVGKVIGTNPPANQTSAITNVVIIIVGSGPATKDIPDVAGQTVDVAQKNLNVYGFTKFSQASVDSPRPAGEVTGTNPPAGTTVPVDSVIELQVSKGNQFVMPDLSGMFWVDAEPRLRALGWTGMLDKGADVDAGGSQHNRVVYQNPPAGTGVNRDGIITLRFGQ
T27 sequence (Q9H0K1 whole entry): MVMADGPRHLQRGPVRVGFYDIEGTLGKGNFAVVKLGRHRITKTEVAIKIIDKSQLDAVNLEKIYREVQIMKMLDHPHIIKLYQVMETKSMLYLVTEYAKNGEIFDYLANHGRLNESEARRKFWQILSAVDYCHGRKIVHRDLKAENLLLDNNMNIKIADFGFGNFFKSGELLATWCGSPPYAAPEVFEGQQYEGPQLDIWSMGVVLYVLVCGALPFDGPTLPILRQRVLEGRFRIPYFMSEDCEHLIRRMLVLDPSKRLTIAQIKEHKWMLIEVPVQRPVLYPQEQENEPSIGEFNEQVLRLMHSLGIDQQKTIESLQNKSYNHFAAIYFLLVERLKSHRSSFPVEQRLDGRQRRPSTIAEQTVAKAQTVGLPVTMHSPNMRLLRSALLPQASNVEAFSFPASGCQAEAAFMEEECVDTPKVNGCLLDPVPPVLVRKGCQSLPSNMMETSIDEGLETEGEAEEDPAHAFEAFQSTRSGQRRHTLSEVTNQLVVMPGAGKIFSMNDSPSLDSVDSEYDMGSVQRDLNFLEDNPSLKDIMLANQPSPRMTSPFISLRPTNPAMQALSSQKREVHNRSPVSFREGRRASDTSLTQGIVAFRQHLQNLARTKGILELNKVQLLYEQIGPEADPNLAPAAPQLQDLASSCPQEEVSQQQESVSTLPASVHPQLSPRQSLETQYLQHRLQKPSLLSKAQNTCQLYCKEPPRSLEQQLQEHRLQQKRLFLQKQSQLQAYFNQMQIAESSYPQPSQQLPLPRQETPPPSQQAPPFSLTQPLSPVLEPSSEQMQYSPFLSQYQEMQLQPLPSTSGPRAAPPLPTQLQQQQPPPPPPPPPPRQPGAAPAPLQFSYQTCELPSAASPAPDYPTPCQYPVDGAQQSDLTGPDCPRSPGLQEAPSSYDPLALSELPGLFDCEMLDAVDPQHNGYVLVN
T3 sequence (P11802 whole entry): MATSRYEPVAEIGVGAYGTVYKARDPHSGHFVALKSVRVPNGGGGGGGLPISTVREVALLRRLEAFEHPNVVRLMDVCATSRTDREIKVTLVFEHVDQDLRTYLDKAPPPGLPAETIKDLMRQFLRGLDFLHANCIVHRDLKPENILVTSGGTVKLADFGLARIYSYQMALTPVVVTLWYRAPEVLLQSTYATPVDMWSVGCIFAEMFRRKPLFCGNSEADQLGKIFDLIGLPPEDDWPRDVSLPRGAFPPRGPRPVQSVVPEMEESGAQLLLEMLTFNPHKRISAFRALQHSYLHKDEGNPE
T3 sequence (P30281 whole entry partner): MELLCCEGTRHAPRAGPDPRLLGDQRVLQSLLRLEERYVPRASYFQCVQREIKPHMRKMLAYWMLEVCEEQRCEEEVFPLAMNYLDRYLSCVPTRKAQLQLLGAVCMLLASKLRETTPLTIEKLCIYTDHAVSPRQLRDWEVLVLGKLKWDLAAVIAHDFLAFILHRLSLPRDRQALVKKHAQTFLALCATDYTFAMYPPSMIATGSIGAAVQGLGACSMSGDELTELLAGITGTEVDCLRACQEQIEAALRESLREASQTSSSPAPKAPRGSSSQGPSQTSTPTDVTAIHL
T5 sequence (Q92772 whole entry): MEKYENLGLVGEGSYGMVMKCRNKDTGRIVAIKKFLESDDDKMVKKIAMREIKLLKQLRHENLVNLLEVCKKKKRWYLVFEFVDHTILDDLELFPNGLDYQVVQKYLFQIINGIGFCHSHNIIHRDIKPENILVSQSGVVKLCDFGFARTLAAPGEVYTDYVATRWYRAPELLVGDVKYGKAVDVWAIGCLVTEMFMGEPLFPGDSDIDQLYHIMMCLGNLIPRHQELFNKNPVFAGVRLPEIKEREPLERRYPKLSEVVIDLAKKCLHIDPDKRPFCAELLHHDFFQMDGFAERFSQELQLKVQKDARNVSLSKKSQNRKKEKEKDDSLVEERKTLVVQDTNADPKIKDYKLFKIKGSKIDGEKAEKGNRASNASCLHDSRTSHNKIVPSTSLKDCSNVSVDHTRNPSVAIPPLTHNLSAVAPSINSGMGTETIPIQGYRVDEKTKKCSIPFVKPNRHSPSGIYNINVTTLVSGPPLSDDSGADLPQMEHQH

`C=CC(=O)N1CCC[C@@H](n2nc(-c3ccc(OCc4cccc(C)n4)c(Cl)c3)c3c(N)ncnc32)C1` [CHMFL-EGFR-26] showed a remaining binding at 1 µM [1] of 93%, a remaining binding at 1 µM [2] of 82% and a remaining binding at 1 µM [3] of 100%. It also gave a remaining binding at 1 µM [4] of 92%, a remaining binding at 1 µM [5] of 100% and a remaining binding at 1 µM [6] of 97%. The remaining binding at 1 µM [7] was 18%, the remaining binding at 1 µM [8] was 89% and the remaining binding at 1 µM [9] was 97%. It also gave a remaining binding at 1 µM [10] of 100%, a remaining binding at 1 µM [11] of 100% and a remaining binding at 1 µM [12] of 100%. It also gave a remaining binding at 1 µM [13] of 0.3%, a remaining binding at 1 µM [14] of 1.1% and a remaining binding at 1 µM [15] of 0.1%. The remaining binding at 1 µM [16] was 80%, the remaining binding at 1 µM [17] was 53% and the remaining binding at 1 µM [18] was 100%. For the same compound, the remaining binding at 1 µM [19] was 54%, the remaining binding at 1 µM [20] was 81% and the remaining binding at 1 µM [21] was 100%. For the same compound, the remaining binding at 1 µM [22] was 100%, the remaining binding at 1 µM [23] was 100% and the remaining binding at 1 µM [24] was 97%. The remaining binding at 1 µM [25] was 100%, the remaining binding at 1 µM [26] was 100% and the remaining binding at 1 µM [27] was 99%. The remaining binding at 1 µM [28] was 93%, the remaining binding at 1 µM [29] was 8.8% and the remaining binding at 1 µM [30] was 100%. It also gave a remaining binding at 1 µM [31] of 100%, a remaining binding at 1 µM [32] of 100% and a remaining binding at 1 µM [33] of 84%. For the same compound, the remaining binding at 1 µM [34] was 53%, the remaining binding at 1 µM [35] was 97% and the cell cycle progression ([36]; H1975, HCC827, PC9 and H3255 (EGFR mutants), 24-hour) was “dramatically blocked cell cycle at G0/G1 phase”. For the same compound, the cell cycle progression ([36]; wild-type EGFR lines A549 and H1355, up to 3 μM, 72-hour) was “did not cause cell cycle arrest”, the “TGI (tumor growth inhibition rate)” value [37, 39] was 23.0% and the “Tumor weight (final, mean)” value [37, 39] was 1.37 g. The “TGI (tumor growth inhibition rate)” value [37, 40] was 48.9%, the “Tumor weight (final, mean)” value [37, 40] was 0.91 g and the “TGI (tumor growth inhibition rate)” value [37, 41] was 60.1%. The “Tumor weight (final, mean)” value [37, 41] was 0.71 g, the “toxicity (body weight)” value ([37]; H1975 xenograft, oral 25, 50 and 100mg/kg/day) was “did not show any apparent toxicity” and the hyperglycemia ([37]; preclinical mouse model study) was “no hyperglycemia phenomenon was observed”. For the same compound, the GI50 [38] was greater than 10 µM.
